Numbers after ± are expanded uncertainties.
Settings: Fluid (supercritical or subcritical phases), Brillouin light scattering

CCCCCCCC [octane]
Settings	speed of sound [m/s]
603.85 K, 8000 kPa	299 ± 4.8
604.21 K, 9000 kPa	324.3 ± 4.7
605.28 K, 3000 kPa	116.6 ± 4
605.73 K, 3500 kPa	94.8 ± 2.3
606.87 K, 4000 kPa	111.1 ± 5.5
607.11 K, 4500 kPa	144.8 ± 5.2
607.61 K, 5000 kPa	169.3 ± 4.4
607.97 K, 6000 kPa	215.3 ± 4.5
608.4 K, 7000 kPa	254.8 ± 4.4
608.86 K, 8000 kPa	285.3 ± 4.4
609.24 K, 9000 kPa	312.3 ± 4.6
609.54 K, 10000 kPa	340.1 ± 5
610.17 K, 3000 kPa	124.3 ± 3.7
610.28 K, 3500 kPa	103.2 ± 3.7
611.94 K, 4500 kPa	133.3 ± 4.3
612.5 K, 4000 kPa	108.7 ± 4
613.58 K, 5000 kPa	153.7 ± 4.5
613.8 K, 6000 kPa	204.8 ± 4.5
614.19 K, 7000 kPa	242.3 ± 4.2
614.65 K, 8000 kPa	273.2 ± 4.3
614.76 K, 3000 kPa	129.2 ± 3.3
614.83 K, 3500 kPa	111.5 ± 1.5
615.18 K, 9000 kPa	302 ± 4.6
616.02 K, 4500 kPa	128.5 ± 3.6
616.33 K, 5000 kPa	148.3 ± 3.9
617.46 K, 4000 kPa	110.4 ± 3.3
619.43 K, 3000 kPa	134.1 ± 3
619.62 K, 3500 kPa	119 ± 1.6
619.76 K, 4500 kPa	125.2 ± 2
620.31 K, 5000 kPa	144 ± 3.7
622 K, 4000 kPa	112.6 ± 2.7
623.42 K, 5000 kPa	141.6 ± 3.7
623.5 K, 6000 kPa	184.3 ± 4.1
623.84 K, 7000 kPa	224.1 ± 4.1
624.5 K, 8000 kPa	254.1 ± 4.1
624.55 K, 3500 kPa	124.9 ± 2.6
624.66 K, 4000 kPa	114.2 ± 1.5
624.87 K, 9000 kPa	283.1 ± 4.4
624.89 K, 3000 kPa	139.4 ± 2.9
625 K, 4500 kPa	125.1 ± 2.6
625.29 K, 5000 kPa	139.2 ± 3
628.69 K, 4000 kPa	120.4 ± 1.7
629.77 K, 5000 kPa	137.3 ± 2.5
629.96 K, 3500 kPa	132.1 ± 1.9
630.15 K, 3000 kPa	144.3 ± 2.7
630.45 K, 4500 kPa	126.6 ± 2.3
632.06 K, 4000 kPa	124.2 ± 1.7
633.13 K, 5000 kPa	137.6 ± 2.6
633.62 K, 6000 kPa	169.8 ± 3.5
633.94 K, 7000 kPa	204.8 ± 3.9
634.48 K, 8000 kPa	240.7 ± 4.3
635.95 K, 3000 kPa	149.3 ± 2.5
635.97 K, 3500 kPa	140 ± 2.3
636.07 K, 4000 kPa	131.6 ± 1.9
636.31 K, 4500 kPa	132 ± 1.7
637.58 K, 5000 kPa	140.4 ± 2.2
638.73 K, 3500 kPa	142.4 ± 2.1
638.9 K, 3000 kPa	152.4 ± 2.5
639.03 K, 4500 kPa	134.5 ± 1.8
642.09 K, 5000 kPa	144.1 ± 2
642.28 K, 6000 kPa	160.5 ± 2.9
642.66 K, 4000 kPa	142.7 ± 1.9
642.75 K, 7000 kPa	194.7 ± 3.8
643.16 K, 8000 kPa	229.4 ± 4.1

— the NIST ThermoML archive (doi:10.1021/acs.jced.7b00712)
